Data from patent publication US9676997B2, “Compositions and methods for stabilizing luminogenic substrates” (Promega Corporation, priority 2014, dated 2017).
Each block holds one compound with its values, some of them ahead of it.

Tests used:
[1] = Photostability of 1.25 mM furimazine in 50% propylene glycol:50% ethanol with or without 225 mM ATT, HPLC; format: physicochemical; conditions: for 10% loss / 50% loss: in the light
Method: Specifically, a 2× stock solution of ATT in 50% propylene glycol:50% ethanol (v/v) was prepared, in which the final concentration of ATT was 64.4 mg/mL. A 2× stock solution of furimazine in 50% propylene glycol:50% ethanol (v/v) was also prepared, in which the final concentration of furimazine was 0.95 mg/mL. In one vial, the 2×ATT stock solution was diluted 1:1 in the 2×furimazine stock solution to create a solution containing 225 mM ATT and 1.25 mM furimazine. In a second vial, the 2×furimazine stock solution was diluted 1:1 in 50% propylene glycol:50% ethanol (v/v) to create a control solution without the additive ATT (i.e., “no additive furimazine” control) and containing 1.25 mM furimazine.
The content of each vial was dispensed into separate, clear HPLC vials with insert and these HPLC vials were placed at room temperature (i.e., about 20° C.) in the light (i.e., in the presence of overhead fluorescent light) and at 40° C. in the light. There was one HPLC vial per time point for each temperature.
Stability was measured by HPLC with 5 μL injection and detection at 262 nm. In each chromatogram, the area of the furimazine peak was determined. Stability curves were generated by plotting the area (10^6) vs. time (days) and are shown in FIGS. 13A and 13B for room temperature and 40° C., respectively.

[2] = Stability of 1.25 mM furimazine in 50% ethanol and 50% propylene glycol with or without 225 mM ATT, in the presence of light, HPLC and Arrhenius plots; format: physicochemical; conditions: for relative peak area percentage at 262 nm: in the presence of light
Method: The stability of furimazine in the presence and absence of ATT was measured over time at different temperatures. This study was conducted in the presence of light. Specifically, 1.25 mM furimazine was present in a solution of 50% ethanol and 50% propylene glycol (i.e., the solution without ATT) or a solution of 50% ethanol and 50% propylene glycol with 225 mM ATT (i.e., the solution with ATT). […]
Following incubation, high performance liquid chromatography (HPLC) was utilized to identify the components of the respective solutions at each time point. Specifically, an Agilent 1100 HPLC instrument was used and equipped with a quaternary pump, thermostatted autosampler and column compartment, and a G1311B diode-array detector. The column used was a Synergi-MAX-RP (Phenomenex, Torrance, Calif.) 100 AÅ 50×4.6 2.5 μm. The run on the HPLC was a gradient run with 0.1% TFA in water and acetonitrile. Absorbance was measured at 262 nanometers (nm). Standards of furimazine and its known degradants were run to confirm both the retention time and absorbance trace. 5 μl of each solution was injected and the retention time of furimazine at room temperature was 5.1 minutes.
The results of the HPLC analysis are shown below in Tables 10 and 11 and FIGS. 4A and 4B, in which the values are reported as relative peak area percentage at 262 nm (i.e., the lamba max of the substrate). […] In each of FIGS. 4A and 4B, diamond is 1.25 mM furimazine incubated over time with or without 225 mM ATT, respectively, at −20° C., triangle is 1.25 mM furimazine incubated over time with or without 225 mM ATT, respectively, at 20° C., star is 1.25 mM furimazine incubated over time with or without 225 mM ATT, respectively, at 40° C., and cross is 1.25 mM furimazine incubated over time with or without 225 mM ATT, respectively, at 60° C.
Additionally, Arrhenius plots were generated for furimazine in the presence and absence of ATT to calculate the half-life of furimazine at various temperatures. The Arrhenius equation is as follows: […]
In FIG. 5, the slope was −10831.4, the intercept was 31.3561, and R^2 was 0.9813.
In FIG. 6, the slope was −10106.2, the intercept was 30.1809, and R^2 was 0.9984.

SMILES: Cc1n[nH]c(=S)[nH]c1=O [ATT, 6-methyl-3-thioxo-3,4-dihydro-1,2,4-triazin-5(2H)-one]
stabilization of furimazine against decomposition in the presence of light ([1]; 225 mM ATT, room temperature and 40° C.): stabilized furimazine against decomposition in the presence of light at different temperatures | stabilization of furimazine against decomposition ([2]; 225 mM ATT, over time at different temperatures): stabilized furimazine against decomposition over time at different temperatures

10% loss ([1]; 40° C.): 0.4 days | 50% loss ([1]; 40° C.): 3.6 days | 10% loss ([1]; room temperature): 0.5 days | 50% loss ([1]; room temperature): 2.1 days | relative peak area percentage at 262 nm ([2]; 40° C., 0 days): 89.7% | relative peak area percentage at 262 nm ([2]; 40° C., 1 day): 93.8% | relative peak area percentage at 262 nm ([2]; 40° C., 5 days): 65% | relative peak area percentage at 262 nm ([2]; 40° C., 8 days): 50.1% | relative peak area percentage at 262 nm ([2]; 40° C., 14 days): 27% | relative peak area percentage at 262 nm ([2]; 40° C., 30 days): 3.5% | relative peak area percentage at 262 nm ([2]; 40° C., 90 days): 0% | relative peak area percentage at 262 nm ([2]; 60° C., 0 days): 89.7% | relative peak area percentage at 262 nm ([2]; 60° C., 1 day): 70.1% | relative peak area percentage at 262 nm ([2]; 60° C., 5 days): 1.3%^ | relative peak area percentage at 262 nm ([2]; 60° C., 8 days): 0% | relative peak area percentage at 262 nm ([2]; 60° C., 14 days): 0% | relative peak area percentage at 262 nm ([2]; 60° C., 30 days): 0% | relative peak area percentage at 262 nm ([2]; 60° C., 90 days): 0% | relative peak area percentage at 262 nm ([2]; RT (20° C.), 0 days): 89.7% | relative peak area percentage at 262 nm ([2]; RT (20° C.), 1 day): 97.2% | relative peak area percentage at 262 nm ([2]; RT (20° C.), 5 days): 93.8% | relative peak area percentage at 262 nm ([2]; RT (20° C.), 8 days): 91.7% | relative peak area percentage at 262 nm ([2]; RT (20° C.), 14 days): 86.7% | relative peak area percentage at 262 nm ([2]; RT (20° C.), 30 days): 74.8% | relative peak area percentage at 262 nm ([2]; RT (20° C.), 90 days): 27.1% | relative peak area percentage at 262 nm ([2]; −20° C., 0 days): 89.7% | relative peak area percentage at 262 nm ([2]; −20° C., 1 day): 98.3% | relative peak area percentage at 262 nm ([2]; −20° C., 5 days): 96.9% | relative peak area percentage at 262 nm ([2]; −20° C., 8 days): 98.2% | relative peak area percentage at 262 nm ([2]; −20° C., 14 days): 97.7% | relative peak area percentage at 262 nm ([2]; −20° C., 30 days): 98.3% | relative peak area percentage at 262 nm ([2]; −20° C., 90 days): 95.3%
SMILES: O=c1c(Cc2ccco2)nc2c(Cc3ccccc3)[nH]c(-c3ccccc3)cn1-2 [Furimazine, furimazine]
Arrhenius plot intercept ([2]; decomposition of furimazine): 30.1809 | Arrhenius plot slope ([2]; decomposition of furimazine): −10106.2
